Assay results taken from PubChem BioAssay (NCI).
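The compound was tested at five concentrations on cells cultured in 96-well plates, with a 48-hour exposure period. At the GI50, growth is halved. TGI is the concentration that stops growth completely.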

Columns and labels:
Assay in all cases: NCI anticancer screen, dose series, 48 h; in the data active means GI50 below about 0.43 µM; inactive means the rest
[1] = system: 786-0 renal
[2] = system: A498 renal
[3] = system: A549 NSCLC
[4] = system: ACHN renal
[5] = system: BT-549 breast
[6] = system: CAKI-1 renal
[7] = system: CCRF-CEM leukemia
[8] = system: COLO 205 colon
[9] = system: DU-145 prostate
[10] = system: EKVX NSCLC
[11] = system: HCC-2998 colon
[12] = system: HCT-116 colon
[13] = system: HCT-15 colon
[14] = system: HL-60(TB) leukemia
[15] = system: HOP-62 NSCLC
[16] = system: HOP-92 NSCLC
[17] = system: HS 578T breast
[18] = system: HT29 colon
[19] = system: IGROV1 ovarian
[20] = system: K-562 leukemia
[21] = system: KM12 colon
[22] = system: LOX IMVI melanoma
[23] = system: M14 melanoma
[24] = system: MALME-3M melanoma
[25] = system: MDA-MB-231 breast
[26] = system: MDA-MB-435
[27] = system: MOLT-4 leukemia
[28] = system: NCI-H226 lung
[29] = system: NCI-H23 lung
[30] = system: NCI-H522 lung
[31] = system: NCI/ADR-RES ovarian
[32] = system: OVCAR-4 ovarian
[33] = system: OVCAR-5 ovarian
[34] = system: OVCAR-8 ovarian
[35] = system: PC-3 prostate
[36] = system: SF-268 CNS
[37] = system: SF-295 CNS
[38] = system: SF-539 CNS
[39] = system: SK-MEL-2 melanoma
[40] = system: SK-MEL-5 melanoma
[41] = system: SK-OV-3 ovarian
[42] = system: SN12C renal
[43] = system: SNB-19 CNS
[44] = system: SNB-75 CNS
[45] = system: SR leukemia
[46] = system: SW-620 colon
[47] = system: T-47D breast
[48] = system: TK-10 renal
[49] = system: U251 CNS
[50] = system: UACC-257 melanoma
[51] = system: UACC-62 melanoma
[52] = system: UO-31 renal

CC1CC2(C)CC(=O)C1C1C(=O)N(CCN3CCCCC3)C(=O)C12 (centres undefined)
> 100 µM: TGI [1] | TGI [2] | TGI [3] | TGI [4] | TGI [5] | TGI [6] | TGI [7] | TGI [8] | TGI [9] | TGI [10] | TGI [11] | TGI [12] | TGI [13] | TGI [14] | TGI [15] | TGI [16] | TGI [17] | TGI [18] | TGI [19] | TGI [20] | TGI [21] | TGI [22] | TGI [23] | TGI [24] | TGI [25] | TGI [26] | TGI [27] | TGI [28] | TGI [29] | TGI [30] | TGI [31] | TGI [32] | TGI [33] | TGI [34] | TGI [35] | TGI [36] | TGI [37] | TGI [38] | TGI [39] | TGI [40] | TGI [41] | TGI [42] | TGI [43] | TGI [44] | TGI [45] | TGI [46] | TGI [47] | TGI [48] | TGI [49] | TGI [50] | TGI [51] | TGI [52]
inactive: GI50 [1] > 100 µM | GI50 [2] > 100 µM | GI50 [3] > 100 µM | GI50 [4] > 100 µM | GI50 [5] > 100 µM | GI50 [6] > 100 µM | GI50 [7] > 100 µM | GI50 [8] > 100 µM | GI50 [9] > 100 µM | GI50 [10] > 100 µM | GI50 [11] > 100 µM | GI50 [12] > 100 µM | GI50 [13] > 100 µM | GI50 [14] > 100 µM | GI50 [15] > 100 µM | GI50 [16] > 100 µM | GI50 [17] > 100 µM | GI50 [18] > 100 µM | GI50 [19] > 100 µM | GI50 [20] > 100 µM | GI50 [21] > 100 µM | GI50 [22] > 100 µM | GI50 [23] > 100 µM | GI50 [24] > 100 µM | GI50 [25] > 100 µM | GI50 [26] > 100 µM | GI50 [27] > 100 µM | GI50 [28] > 100 µM | GI50 [29] > 100 µM | GI50 [30] > 100 µM | GI50 [31] > 100 µM | GI50 [32] > 100 µM | GI50 [33] > 100 µM | GI50 [34] > 100 µM | GI50 [35] > 100 µM | GI50 [36] > 100 µM | GI50 [37] > 100 µM | GI50 [38] > 100 µM | GI50 [39] > 100 µM | GI50 [40] > 100 µM | GI50 [41] > 100 µM | GI50 [42] > 100 µM | GI50 [43] > 100 µM | GI50 [44] > 100 µM | GI50 [45] > 100 µM | GI50 [46] > 100 µM | GI50 [47] > 100 µM | GI50 [48] > 100 µM | GI50 [49] > 100 µM | GI50 [50] > 100 µM | GI50 [51] > 100 µM | GI50 [52] > 100 µM
